Measured values as given in article PMC5146650, “Effect of arginine on oligomerization and stability of N-acetylglutamate synthase” (Scientific Reports, 2016).
pKd: −log10 of the molar value. Where “and” joins values, the source holds several entries; their conditions need not be identical. Equal values may be shown once.

Key:
mNAGS-M [1] = molecular target: T1, mNAGS-M (Mus musculus, UniProt Q8R4H7); test: NAGS activity assay after […] min preincubation at […]-45 °C; assay type: biochemical; settings: 1 mM L-arginine; assayed at 30 °C; allosteric activator; range covers mNAGS-M and mNAGS-C
T1 construct: gene Nags; mature form, mitochondrial targeting signal removed, variable segment kept
T1 sequence (Q8R4H7 51-527): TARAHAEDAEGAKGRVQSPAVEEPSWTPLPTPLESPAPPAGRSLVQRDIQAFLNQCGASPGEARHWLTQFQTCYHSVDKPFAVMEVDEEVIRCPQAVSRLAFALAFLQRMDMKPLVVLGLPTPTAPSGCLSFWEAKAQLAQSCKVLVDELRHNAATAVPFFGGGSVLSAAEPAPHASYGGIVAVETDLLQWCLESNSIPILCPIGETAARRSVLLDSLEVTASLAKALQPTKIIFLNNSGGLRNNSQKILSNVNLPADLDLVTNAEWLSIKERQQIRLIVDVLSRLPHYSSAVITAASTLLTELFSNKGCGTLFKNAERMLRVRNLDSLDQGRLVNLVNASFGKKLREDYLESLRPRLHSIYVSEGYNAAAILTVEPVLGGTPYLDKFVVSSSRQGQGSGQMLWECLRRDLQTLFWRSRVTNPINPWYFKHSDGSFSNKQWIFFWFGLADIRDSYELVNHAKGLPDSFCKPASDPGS

mNAGS-C [2] = molecular target: T2, mNAGS-C (Mus musculus, UniProt Q8R4H7); test: Thermofluor thermal shift, SYPRO Orange; assay type: binding; settings: read-out: change in Tm at 10 mM
T2 construct: gene Nags; conserved segment only, mitochondrial targeting signal and variable segment removed
T2 sequence (Q8R4H7 84-527 limits assumed): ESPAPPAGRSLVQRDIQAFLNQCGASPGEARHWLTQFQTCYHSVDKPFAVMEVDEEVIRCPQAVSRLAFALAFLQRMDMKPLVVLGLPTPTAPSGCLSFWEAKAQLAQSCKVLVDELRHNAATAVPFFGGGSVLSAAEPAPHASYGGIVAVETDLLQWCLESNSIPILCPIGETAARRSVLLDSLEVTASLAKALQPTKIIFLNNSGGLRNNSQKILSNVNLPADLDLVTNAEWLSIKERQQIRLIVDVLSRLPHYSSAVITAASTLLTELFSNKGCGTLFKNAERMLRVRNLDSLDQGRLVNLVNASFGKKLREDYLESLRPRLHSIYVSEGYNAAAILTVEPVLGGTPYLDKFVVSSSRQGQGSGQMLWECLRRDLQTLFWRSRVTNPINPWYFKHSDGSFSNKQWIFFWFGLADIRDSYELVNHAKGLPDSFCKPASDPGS

XcNAGS-K = molecular target: T3, XcNAGS-K (Xanthomonas campestris, UniProt B0RS52); test: sedimentation velocity ultracentrifugation and Thermofluor; assay type: binding; settings: 1 mM L-arginine; 10 mM Tris, 50 mM KCl, 1 mM TCEP, pH 8.0, 20 °C (ultracentrifugation); allosteric
T3 construct: gene argB
T3 sequence (B0RS52 1-447): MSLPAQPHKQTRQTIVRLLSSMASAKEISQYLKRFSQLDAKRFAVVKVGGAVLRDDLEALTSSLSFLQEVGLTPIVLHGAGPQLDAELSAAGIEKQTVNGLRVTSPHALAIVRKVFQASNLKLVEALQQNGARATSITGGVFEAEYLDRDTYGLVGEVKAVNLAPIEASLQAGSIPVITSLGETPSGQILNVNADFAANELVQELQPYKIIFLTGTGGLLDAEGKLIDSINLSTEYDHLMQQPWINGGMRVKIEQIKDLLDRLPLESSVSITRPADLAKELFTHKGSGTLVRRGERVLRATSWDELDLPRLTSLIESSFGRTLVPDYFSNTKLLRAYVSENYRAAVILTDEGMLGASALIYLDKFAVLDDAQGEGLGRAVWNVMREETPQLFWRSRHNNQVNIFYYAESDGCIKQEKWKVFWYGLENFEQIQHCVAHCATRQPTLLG

MmNAGS-K = molecular target: T4, MmNAGS-K (Maricaulis maris, UniProt Q0ASS9); test: Thermofluor thermal shift, SYPRO Orange; assay type: binding; settings: read-out: change in Tm at 10 mM
T4 construct: gene Mmar10_0365
T4 sequence (Q0ASS9 1-441): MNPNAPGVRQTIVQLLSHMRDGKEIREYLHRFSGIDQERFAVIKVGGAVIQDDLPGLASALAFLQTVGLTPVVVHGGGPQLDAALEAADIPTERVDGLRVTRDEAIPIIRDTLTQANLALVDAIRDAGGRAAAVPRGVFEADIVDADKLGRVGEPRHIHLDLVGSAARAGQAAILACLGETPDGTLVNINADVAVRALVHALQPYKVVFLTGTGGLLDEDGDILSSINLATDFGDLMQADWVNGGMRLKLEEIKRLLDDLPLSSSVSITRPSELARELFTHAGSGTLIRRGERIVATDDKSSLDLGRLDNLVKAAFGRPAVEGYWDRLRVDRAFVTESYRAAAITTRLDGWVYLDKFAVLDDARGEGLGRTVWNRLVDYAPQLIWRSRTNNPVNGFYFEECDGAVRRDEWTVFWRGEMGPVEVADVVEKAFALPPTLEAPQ

mNAGS-C [3] = molecular target: T2, mNAGS-C; test: NAGS activity assay after […] min preincubation at […]-45 °C; assay type: biochemical; settings: 1 mM L-arginine; assayed at 30 °C; allosteric activator; range covers mNAGS-M and mNAGS-C
mNAGS-M [4] = molecular target: T1, mNAGS-M; test: Thermofluor thermal shift, SYPRO Orange; assay type: binding; settings: read-out: change in Tm at 10 mM
NgNAGS = molecular target: T5, NgNAGS (Neisseria gonorrhoeae, UniProt Q5FAK7); test: Thermofluor thermal shift, SYPRO Orange; assay type: binding; settings: read-out: change in Tm at 1 mM
T5 construct: gene argA; hexamer
T5 sequence (Q5FAK7 1-436): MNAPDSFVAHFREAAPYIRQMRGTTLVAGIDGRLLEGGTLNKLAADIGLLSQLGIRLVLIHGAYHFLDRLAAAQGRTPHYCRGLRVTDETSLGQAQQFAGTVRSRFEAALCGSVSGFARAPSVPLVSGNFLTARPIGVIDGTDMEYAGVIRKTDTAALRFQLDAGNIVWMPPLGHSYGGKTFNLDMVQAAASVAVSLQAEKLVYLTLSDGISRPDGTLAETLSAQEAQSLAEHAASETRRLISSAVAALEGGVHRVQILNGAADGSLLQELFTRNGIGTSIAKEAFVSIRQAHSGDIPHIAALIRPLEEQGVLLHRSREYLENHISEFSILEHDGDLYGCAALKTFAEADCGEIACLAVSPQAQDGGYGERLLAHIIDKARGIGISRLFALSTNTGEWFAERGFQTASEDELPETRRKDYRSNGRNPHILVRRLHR

[5] = molecular target: bifunctional N-acetylglutamate synthase-kinase from Xanthomonas campestris (Xanthomonas campestris); test: AUC; sedimentation velocity, c(s) distributions and sw isotherm fitted to a tetramer-octamer association model (octamer to tetramers); without L-arginine; 2-40 uM monomer, 20 °C, 50,000 rpm, 10 mM Tris, 50 mM KCl, 1 mM TCEP, pH 8.0
[6] = molecular target: bifunctional N-acetylglutamate synthase-kinase from Xanthomonas campestris (Xanthomonas campestris); test: AUC; sedimentation velocity, sw isotherm fitted to a tetramer-octamer association model (octamer to tetramers); with 1 mM L-arginine; 20 °C, 50,000 rpm, 10 mM Tris, 50 mM KCl, 1 mM TCEP, pH 8.0
[7] = molecular target: bifunctional N-acetylglutamate synthase-kinase from Xanthomonas campestris (Xanthomonas campestris); test: AUC; sedimentation velocity, global fit of raw data with explicit Lamm equation solutions and reaction kinetics, tetramer-octamer model (octamer to tetramers); without L-arginine; 35, 26, 17, 12, 9, 4 and 2 uM monomer, 20 °C, 10 mM Tris, 50 mM KCl, 1 mM TCEP

Row | Compound | fold increase of specific activity at 1 mM (mNAGS-M [1]) | ΔTm at 10000 µM (mNAGS-C [2]) [°C] | sedimentation velocity ultracentrifugation and Thermofluor (XcNAGS-K) | ΔTm at 10000 µM (MmNAGS-K) [°C] | fold increase of specific activity at 1 mM (mNAGS-C [3]) | ΔTm at 10000 µM (mNAGS-M [4]) [°C] | ΔTm at 1000 µM (NgNAGS) [°C] | pKd [5] | stoichiometry N [5] | pKd [6] | pKd [7] | half-life for the octamer [7] [min] | log10koff [7]
1 | N=C(N)NCCC[C@H](N)C(=O)O [L-arginine] | 1.5- to 4 | ~5 | equilibrium between XcNAGS-K tetramers and octamers depends on the presence and binding of L-arginine | ~10 | 1.5- to 4 | ~5 | ~-2.5 | – | – | – | – | – | –
2 | bifunctional N-acetylglutamate synthase-kinase from Xanthomonas campestris (enzyme) | – | – | – | – | – | – | – | 5.54 | 4 and 8 | 4.43 | 5.59 | 45 | -3.6
